Legend:
[1] = test system: IL-17AA-induced IL-17 signaling pathway; assay: Inhibition of IL-17AA-induced IL-17 signaling pathway in HEK-Blue IL-17 reporter cells (SEAP); type: cell-based; conditions: Homo sapiens; HEK-Blue IL-17 cells, IL-17AA 2.5 ng/mL, 20 hours; read-out: IC50 for Inhibiting IL-AA Signaling
Summary of the method: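 HEK-Blue IL-17 cells (HEK293 expressing human IL-17RA/RC, ACT1 and NF-κB/AP-1-driven SEAP), 10,000/well, pre-incubated with compound (serial dilution from 10 μM) for 1 h at 37 °C, then stimulated with IL-17AA at 2.5 ng/mL final for 20 h. SEAP in supernatant read with Quanti-Blue at 620 nm; IC50 by 4-parameter fit.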

[2] = target: T1, IL-17AA and IL-17RA (Homo sapiens, UniProt Q16552); assay: Competitive inhibition of human IL-17AA and IL-17RA binding (HTRF); conditions: recombinant IL-17AA (His-tag) and IL-17RA (hFc-tag); read-out: IC50 for Inhibiting IL-AA/IL-RA Binding
T1 construct: purchased Sino Biological 12047-H07B (IL-17AA); 10895-H02H (IL-17RA)
T1 sequence (Q16552 24-155): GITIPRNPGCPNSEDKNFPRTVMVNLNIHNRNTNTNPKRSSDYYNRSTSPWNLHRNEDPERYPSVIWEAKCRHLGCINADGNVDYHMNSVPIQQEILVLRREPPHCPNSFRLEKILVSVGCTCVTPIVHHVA
Summary of the method: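 His-IL-17AA (1 nM) premixed 1 h with anti-His-Tb (0.4 nM), and Fc-IL-17RA (1 nM) with anti-IgG-d2 (1 μg/mL); these are pre-mix levels. Compounds, diluted from 10 μM, preincubated 2 h RT with IL-17AA mix; IL-17RA mix then added, 20 min. 665/615 ratio vs no-compound and no-IL-17AA controls; IC50 by 4-parameter fit.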

[3] = test system: IL-17AF-induced IL-17 signaling pathway; assay: Inhibition of IL-17AF-induced IL-17 signaling pathway; type: cell-based; conditions: Homo sapiens; IL-17AF used instead of IL-17AA; read-out: IC50 for Inhibiting IL-AF Signaling
Summary of the method: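 HEK293-derived HEK-Blue IL-17 cells (IL-17RA/RC, ACT1, NF-κB/AP-1-driven SEAP) preincubated 1 hour at 37° C with serially diluted compound from 10 μM, then stimulated with IL-17AF for 20 hours. SEAP read colorimetrically at 620 nm; IC50 from 4-parameter fit of % inhibition.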

Row | Compound | IC50 [1] [nM] | IC50 [2] [nM] | IC50 [3] [nM]
1 | CCn1nccc1C(=O)N[C@H](C(=O)Nc1ccc([C@H](C)[C@@H](NC(=O)COC)c2nccn2CC2CC2)cc1F)C(C1CC1)C1CC1 [Compound 38, N-((S)-1,1-dicyclopropyl-3-((4-((1R,2S)-1-(1-(cyclopropylmethyl)-1H-imidazol-2-yl)-1-(2-methoxyacetamido)propan-2-yl)-2-fluorophenyl)amino)-3-oxopropan-2-yl)-1-ethyl-1H-pyrazole-5-carboxamide] | 2.9 | 7.5 | 7
2 | CCC(=O)N[C@@H](c1ncn(CCNC2CC2)n1)[C@@H](C)c1ccc(NC(=O)[C@@H](NC(=O)c2nonc2C)C(C2CC2)C2CC2)c(F)c1 [Compound 80, N—((S)-1,1-dicyclopropyl-3-((4-((1R,2S)-1-(1-(2-(cyclopropylamino)ethyl)-1H-1,2,4-triazol-3-yl)-1-propionamidopropan-2-yl)-2-fluorophenyl)amino)-3-oxopropan-2-yl)-4-methyl-1,2,5-oxadiazole-3-carboxamide] | 32 | 18 | 49
3 | CCC(=O)N[C@@H](c1ncnn1CC1CC1)[C@@H](C)c1ccc(NC(=O)[C@@H](NC(=O)c2ccnn2C(C)C)C(C2CC2)C2CC2)c(F)c1 [Compound 44, N-((S)-1,1-dicyclopropyl-3-((4-((1R,2S)-1-(1-(cyclopropylmethyl)-1H-1,2,4-triazol-5-yl)-1-propionamidopropan-2-yl)-2-fluorophenyl)amino)-3-oxopropan-2-yl)-1-isopropyl-1H-pyrazole-5-carboxamide] | 4.4 | 1.9 | 29
4 | CCC(=O)N[C@@H](c1ncnn1CC1CC1)[C@@H](C)c1ccc(NC(=O)[C@@H](NC(=O)c2ccnn2CC)C2CCC(=C(F)F)CC2)c(F)c1 (stereo partly drawn) [Compound 77, N-((S)-2-((4-((1R,2S)-1-(1-(cyclopropylmethyl)-1H-1,2,4-triazol-5-yl)-1-propionamidopropan-2-yl)-2-fluorophenyl)amino)-1-(4-(difluoromethylene)cyclohexyl)-2-oxoethyl)-1-ethyl-1H-pyrazole-5-carboxamide] | 11 | 5.6 | 32
5 | CCn1nccc1C(=O)N[C@H](C(=O)Nc1ccc([C@H](C)[C@@H](NC(=O)COC)c2ncnn2CC2CC2)cc1F)C1CCCCCC1 [Compound 42, N-((S)-1-cycloheptyl-2-((4-((1R,2S)-1-(1-(cyclopropylmethyl)-1H-1,2,4-triazol-5-yl)-1-(2-methoxyacetamido)propan-2-yl)-2-fluorophenyl)amino)-2-oxoethyl)-1-ethyl-1H-pyrazole-5-carboxamide] | 5.1 | 4.9 | 11
6 | COCC(=O)N[C@@H](c1ncnn1CC1CC1)[C@@H](C)c1ccc(NC(=O)[C@@H](NC(=O)c2ccnn2C(C)C)C(C2CC2)C2CC2)c(F)c1 [Compound 33, N-((S)-1,1-dicyclopropyl-3-((4-((1R,2S)-1-(1-(cyclopropylmethyl)-1H-1,2,4-triazol-5-yl)-1-(2-methoxyacetamido)propan-2-yl)-2-fluorophenyl)amino)-3-oxopropan-2-yl)-1-isopropyl-1H-pyrazole-5-carboxamide] | 3.1 | 7.9 | 7.7
7 | CCn1nccc1C(=O)N[C@H](C(=O)Nc1ccc([C@H](C)[C@@H](NC(=O)COC)c2nc(C)nn2CC2CC2)cc1F)C(C1CC1)C1CC1 [Compound 25, N-((S)-1,1-dicyclopropyl-3-((4-((1R,2S)-1-(1-(cyclopropylmethyl)-3-methyl-1H-1,2,4-triazol-5-yl)-1-(2-methoxyacetamido)propan-2-yl)-2-fluorophenyl)amino)-3-oxopropan-2-yl)-1-ethyl-1H-pyrazole-5-carboxamide] | 115 | 57 | 313
8 | Cc1nonc1C(=O)N[C@H](C(=O)Nc1ccc([C@H](C)[C@@H](NC(=O)CC#N)c2ncnn2CC2CC2)cc1F)C(C1CC1)C1CC1 [Compound 70, N-((S)-1-((4-((1R,2S)-1-(2-cyanoacetamido)-1-(1-(cyclopropylmethyl)-1H-1,2,4-triazol-5-yl)propan-2-yl)-2-fluorophenyl)amino)-3,3-dicyclopropyl-1-oxopropan-2-yl)-4-methyl-1,2,5-oxadiazole-3-carboxamide] | 7.5 | 3.4 | 7.3
9 | CCC(=O)N[C@@H](c1ncnn1CC1CC1)[C@@H](C)c1ccc(NC(=O)[C@@H](NC(=O)c2ccnn2C2CN(C)C2)C(C2CC2)C2CC2)c(F)c1 [Compound 73, N—((S)-1,1-dicyclopropyl-3-((4-((1R,2S)-1-(1-(cyclopropylmethyl)-1H-1,2,4-triazol-5-yl)-1-propionamidopropan-2-yl)-2-fluorophenyl)amino)-3-oxopropan-2-yl)-1-(1-methylazetidin-3-yl)-1H-pyrazole-5-carboxamide] | 153 | 174 | 180
10 | CCn1nccc1C(=O)N[C@H](C(=O)Nc1ccc([C@H](C)[C@@H](NC(C)=O)c2nncn2CC2CC2)cc1F)C(C1CC1)C1CC1 [Compound 2, N-((S)-1-((4-((1R,2S)-1-acetamido-1-(4-(cyclopropylmethyl)-4H-1,2,4-triazol-3-yl)propan-2-yl)-2-fluorophenyl)amino)-3,3-dicyclopropyl-1-oxopropan-2-yl)-1-ethyl-1H-pyrazole-5-carboxamide] | 50 | 12 | 99
11 | Cc1nonc1C(=O)N[C@H](C(=O)Nc1ccc([C@H](C)[C@@H](NC(=O)COC2CC2)c2ncnn2CC2CC2)cc1F)C(C1CC1)C1CC1 [Compound 60, N-((S)-1-((4-((1R,2S)-1-(2-cyclopropoxyacetamido)-1-(1-(cyclopropylmethyl)-1H-1,2,4-triazol-5-yl)propan-2-yl)-2-fluorophenyl)amino)-3,3-dicyclopropyl-1-oxopropan-2-yl)-4-methyl-1,2,5-oxadiazole-3-carboxamide] | 3.3 | 1.7 | 3.9
12 | [2H]C([2H])([2H])n1nccc1C(=O)N[C@H](C(=O)Nc1ccc([C@H](C)[C@H](NC(=O)CC)c2ncnn2CC2CC2)cc1F)C(C1CC1)C1CC1 [Compound 87, N-((S)-1,1-dicyclopropyl-3-((4-((1S,2S)-1-(1-(cyclopropylmethyl)-1H-1,2,4-triazol-5-yl)-1-propionamidopropan-2-yl)-2-fluorophenyl)amino)-3-oxopropan-2-yl)-1-(methyl-d3)-1H-pyrazole-5-carboxamide] | > 2000 | 1980 | > 2000
13 | CCn1ncnc1C(=O)N[C@H](C(=O)Nc1ccc([C@H](C)[C@@H](NC(=O)COC)c2ncnn2CC2CC2)cc1F)C(C1CC1)C1CC1 [Compound 50, N-((S)-1,1-dicyclopropyl-3-((4-((1R,2S)-1-(1-(cyclopropylmethyl)-1H-1,2,4-triazol-5-yl)-1-(2-methoxyacetamido)propan-2-yl)-2-fluorophenyl)amino)-3-oxopropan-2-yl)-1-ethyl-1H-1,2,4-triazole-5-carboxamide] | 7.9 | 5.6 | 26

From patent publication US20260083708A1, “IL-17 MODULATORS AND USES THEREOF” (NNOCARE PHARMA INC., priority 2024, published 2026)
